# Measurements from patent EP2276483B1, “SOLID FORMS COMPRISING (+)-2-[1-(3-ETHOXY-4-METHOXYPHENYL)-2-METHYLSULFONYLETHYL]-4-ACETYLAMINOISOINDOLINE-1,3-DIONE, COMPOSITIONS THEREOF, AND USES THEREOF” (CELGENE CORPORATION, priority 2008, dated 2009).
# Experiments:
# PDE4 (from U937 cells) = assay: PDE4 (U937 cell-derived) enzyme assay; assay type: biochemical, human; settings: 1 µM cAMP
# Procedure: PDE4 enzyme was purified from U937 human monocytic cells by gel filtration chromatography as previously described (Muller et al., 1998, Bioorg. & Med. Chem. Lett. 8:2669-2674). Phosphodiesterase reactions were carried out in 50 mM Tris HCl pH 7.5, 5 mM MgCl2, 1 µM cAMP, 10 nM [^3H]-cAMP for 30 min at 30°C, terminated by boiling, treated with 1 mg/ml snake venom, and separated using AG-1XS ion exchange resin (BioRad) as described (Muller et al., 1998, Bioorg. & Med. Chem. Lett. 8:2669-2674). Reactions consumed less than 15% of available substrate. Table 1. PDE Specificity
# [1] = biological target: T1, PDE5 from human platelets (Homo sapiens, UniProt O76074); assay: PDE5 enzyme assay; assay type: biochemical; settings: for PDE Specificity Ratio PDE4/PDE5: from above data
# T1 construct: PDE5 from human platelets; from tissue; host or cells: human platelets
# LTB4 = assay: fMLF-induced LTB4 production in neutrophils; assay type: cell-based; settings: Neutrophil; human neutrophils; 1 µM fMLF
# Procedure: N-formyl-methionine-leucine-phenylalanine (fMLF) is a bacterially derived peptide that activates neutrophils to rapidly degranulate, migrate, adhere to endothelial cells, and release leukotriene LTB4, a product of arachidonic acid metabolism and itself a neutrophil chemoattractant. Compounds were tested for the ability to block fMLF-induced neutrophil LTB4 production as previously described (Hatzelmann and Schudt, 2001, J. Pharm. Exp. Ther., 297:267-279), with the following modifications. Neutrophils were isolated as described above and resuspended in phosphate-buffered saline without calcium or magnesium (BioWhittaker) containing 10 mM HEPES pH 7.2 and plated in 96-well tissue culture plates at a concentration of 1.7 x 10^6 cells/well. Cells were treated with 50 µM thimerosal (Sigma)/1 mM CaCl2/1 mM MgCl2 for 15 minutes at 37°C 5% CO2, then treated with compounds at 1000, 200, 40, 8, 1.6, 0.32, 0.064, and 0 nM in a final DMSO concentration of 0.01 % in duplicate for 10 minutes. Neutrophils were stimulated with 1 µM fMLF for 30 minutes, then lysed by the addition of methanol (20% final concentration) and frozen in a dry ice/isopropanol bath for 10 minutes. Lysates were stored at -70°C until the LTB4 content was measured by competitive LTB4 ELISA (R&D Systems).
# bovine PDE1 = assay: PDE1 enzyme assay; assay type: biochemical; settings: for PDE Specificity Ratio PDE4/PDE1: from above data
# cAMP [2] = assay: PGE2-induced cAMP elevation in human PBMC; assay type: cell-based; settings: PGE2 (10µM)
# Procedure: (§1) Prostaglandin E2 (PGE2) binds to prostanoid receptors on monocytes, T cells and other leukocytes and consequently elevates intracellular cAMP levels, resulting in inhibition of cellular responses. The combination of PGE2 and a PDE4 inhibitor synergistically elevates cAMP levels in these cell types, and the elevation of cAMP in PBMC caused by PDE4 inhibitors in the presence of PGE2 is proportional to the inhibitory activity of that PDE4 inhibitor. Intracellular cAMP was measured in human PBMC as follows. PBMC were isolated as described above and plated in 96-well plates at 1 x 10^6 cells per well in RPMI-1640. The cells were pre-treated with compounds at 100, 10, 1, 0.1, 0.01, and 0 µM in a final concentration of 2% DMSO in duplicate at 37°C in a humidified incubator at 5% CO2 for one hour. The cells were then stimulated with PGE2 (10µM) (Sigma) for 1h. The cells were lysed with HCl, 0.1 N final concentration to inhibit phosphodiesterase activity and the plates were frozen at -20°C. The cAMP produced was measured using cAMP (low pH) Immunoassay kit (R&D Systems).
# [3] = biological target: PDE3 from human platelets (Homo sapiens, UniProt Q14432); assay: PDE3 enzyme assay; assay type: biochemical; settings: for PDE Specificity Ratio PDE4/PDE3: from above data
# PDE3 from human platelets, sequence (Q14432 whole entry): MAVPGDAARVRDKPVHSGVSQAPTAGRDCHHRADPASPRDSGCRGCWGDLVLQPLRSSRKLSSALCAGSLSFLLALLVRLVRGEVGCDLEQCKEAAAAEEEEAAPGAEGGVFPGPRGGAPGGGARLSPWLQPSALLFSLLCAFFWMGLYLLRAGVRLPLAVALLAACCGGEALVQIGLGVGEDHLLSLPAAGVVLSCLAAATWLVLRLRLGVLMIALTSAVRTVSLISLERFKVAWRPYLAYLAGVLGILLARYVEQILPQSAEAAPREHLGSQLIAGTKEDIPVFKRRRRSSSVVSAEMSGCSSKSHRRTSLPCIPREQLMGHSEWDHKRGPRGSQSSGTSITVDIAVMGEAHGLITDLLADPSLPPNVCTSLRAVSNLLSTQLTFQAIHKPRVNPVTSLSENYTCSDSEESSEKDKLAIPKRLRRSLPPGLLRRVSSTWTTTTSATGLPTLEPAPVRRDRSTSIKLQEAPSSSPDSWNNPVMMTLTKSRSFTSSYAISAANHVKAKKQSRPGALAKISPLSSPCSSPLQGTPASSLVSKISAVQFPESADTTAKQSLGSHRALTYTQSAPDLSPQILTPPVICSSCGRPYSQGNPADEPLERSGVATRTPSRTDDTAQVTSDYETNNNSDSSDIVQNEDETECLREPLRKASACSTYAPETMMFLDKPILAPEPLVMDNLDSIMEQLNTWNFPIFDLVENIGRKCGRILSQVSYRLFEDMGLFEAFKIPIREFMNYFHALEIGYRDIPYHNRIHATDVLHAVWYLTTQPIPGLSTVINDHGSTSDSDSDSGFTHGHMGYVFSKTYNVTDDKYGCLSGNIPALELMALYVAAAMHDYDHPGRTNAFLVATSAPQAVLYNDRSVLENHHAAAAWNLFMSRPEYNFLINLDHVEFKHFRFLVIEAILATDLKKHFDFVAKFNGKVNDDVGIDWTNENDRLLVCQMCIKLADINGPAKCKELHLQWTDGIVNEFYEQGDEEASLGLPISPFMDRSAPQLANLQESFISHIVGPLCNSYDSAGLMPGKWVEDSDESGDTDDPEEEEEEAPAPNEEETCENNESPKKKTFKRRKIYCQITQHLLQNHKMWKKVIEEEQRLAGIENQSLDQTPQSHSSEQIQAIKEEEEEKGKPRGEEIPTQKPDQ
# [4] = Aqueous equilibrium solubility in pH 7.4 buffer; assay type: physicochemical; settings: thermodynamic from solid; pH 7.4 aqueous buffer, room temperature; read-out: Measured solubility
# Procedure: Equilibrium solubilities were measured in pH 7.4 aqueous buffer. The pH 7.4 buffer was prepared by adjusting the pH of a 0.07 M NaH2PO4 solution to 7.4 with 10 N NaOH. The ionic strength of the solution was 0.15. At least 1 mg of powder was combined with 1 ml of buffer to make >1 mg/ml mixture. These samples were shaken for >2 hours and left to stand overnight at room temperature. The samples were then filtered through a 0.45-µm Nylon syringe filter that was first saturated with the sample. The filtrate was sampled twice, consecutively. The filtrate was assayed by HPLC against standards prepared in 50% methanol.
# [5] = biological target: PDE7 purified from Hut78 human T cells (Homo sapiens, UniProt Q13946); assay: PDE7 enzyme assay; assay type: biochemical
# PDE7 purified from Hut78 human T cells, sequence (Q13946 whole entry): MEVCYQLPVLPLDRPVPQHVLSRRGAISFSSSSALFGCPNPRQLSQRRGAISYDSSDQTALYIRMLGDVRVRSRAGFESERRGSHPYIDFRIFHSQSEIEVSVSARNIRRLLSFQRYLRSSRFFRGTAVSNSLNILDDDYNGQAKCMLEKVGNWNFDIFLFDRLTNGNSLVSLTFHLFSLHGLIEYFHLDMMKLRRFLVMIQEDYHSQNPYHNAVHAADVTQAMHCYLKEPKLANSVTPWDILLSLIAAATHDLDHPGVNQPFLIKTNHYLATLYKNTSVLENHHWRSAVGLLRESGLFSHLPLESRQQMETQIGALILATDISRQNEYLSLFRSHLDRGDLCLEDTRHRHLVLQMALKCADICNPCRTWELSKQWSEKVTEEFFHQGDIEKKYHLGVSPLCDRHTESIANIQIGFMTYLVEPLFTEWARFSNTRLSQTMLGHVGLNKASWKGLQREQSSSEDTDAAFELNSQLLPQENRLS
# Procedure: PDE7 is a cAMP-selective PDE expressed mainly in T cells and in skeletal muscle. T cell-derived cytokines such as IL-2 and IFN-γ are potentially regulatable via PDE7 inhibition. […] Compounds were tested against the PDE7 preparation in the presence of 10 nM cAMP as described for PDE4 in Table 1.
# cAMP [6] = assay: PGE2-induced cAMP elevation in human neutrophils; assay type: cell-based; settings: Neutrophil
# Procedure: as §1
# Elevation of cAMP in human neutrophils was measured as follows. PBMC were removed from source leukocytes (Sera-Tec Biologicals) by centrifugation on Ficoll-Paque Plus (Amersham Pharmacia). […]
# human PDE2 = human PDE2 (Homo sapiens, UniProt O00408); assay: PDE2 enzyme assay; assay type: biochemical; settings: for PDE Specificity Ratio PDE4/PDE2: from above data
# human PDE2, sequence (O00408 whole entry): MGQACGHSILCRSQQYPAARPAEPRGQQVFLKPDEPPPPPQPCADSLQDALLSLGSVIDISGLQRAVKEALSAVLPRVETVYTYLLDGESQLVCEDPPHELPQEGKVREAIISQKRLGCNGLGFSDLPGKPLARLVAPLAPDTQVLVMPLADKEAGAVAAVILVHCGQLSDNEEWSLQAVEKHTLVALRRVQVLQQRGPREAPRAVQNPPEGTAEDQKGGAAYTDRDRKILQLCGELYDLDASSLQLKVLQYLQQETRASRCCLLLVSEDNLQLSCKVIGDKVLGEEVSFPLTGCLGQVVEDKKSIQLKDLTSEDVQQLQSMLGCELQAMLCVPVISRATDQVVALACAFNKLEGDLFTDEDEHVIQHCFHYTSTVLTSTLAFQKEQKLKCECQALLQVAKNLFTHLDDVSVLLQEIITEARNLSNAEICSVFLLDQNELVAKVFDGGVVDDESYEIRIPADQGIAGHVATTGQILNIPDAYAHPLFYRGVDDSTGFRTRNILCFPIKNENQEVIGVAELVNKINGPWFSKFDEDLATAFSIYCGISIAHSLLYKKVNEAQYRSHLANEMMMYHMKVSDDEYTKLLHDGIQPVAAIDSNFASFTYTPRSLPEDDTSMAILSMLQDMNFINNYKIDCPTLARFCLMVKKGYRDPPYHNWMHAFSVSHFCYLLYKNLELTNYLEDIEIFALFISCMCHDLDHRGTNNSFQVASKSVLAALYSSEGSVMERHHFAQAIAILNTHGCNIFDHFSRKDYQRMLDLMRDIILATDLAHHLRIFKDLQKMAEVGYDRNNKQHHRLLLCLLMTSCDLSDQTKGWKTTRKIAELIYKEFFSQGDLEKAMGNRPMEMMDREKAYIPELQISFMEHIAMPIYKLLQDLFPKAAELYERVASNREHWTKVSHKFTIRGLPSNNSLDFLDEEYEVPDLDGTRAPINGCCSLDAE
# [7] = biological target: T2, PDE6 from bovine retinal rod outer segments (Bos taurus, UniProt P11541+P23439); assay: PDE6 enzyme assay; assay type: biochemical
# T2 construct: PDE6 from bovine retinal rod outer segments; from tissue; host or cells: bovine retinal rod outer segments
# T2 sequence (P11541 2-856 limits assumed): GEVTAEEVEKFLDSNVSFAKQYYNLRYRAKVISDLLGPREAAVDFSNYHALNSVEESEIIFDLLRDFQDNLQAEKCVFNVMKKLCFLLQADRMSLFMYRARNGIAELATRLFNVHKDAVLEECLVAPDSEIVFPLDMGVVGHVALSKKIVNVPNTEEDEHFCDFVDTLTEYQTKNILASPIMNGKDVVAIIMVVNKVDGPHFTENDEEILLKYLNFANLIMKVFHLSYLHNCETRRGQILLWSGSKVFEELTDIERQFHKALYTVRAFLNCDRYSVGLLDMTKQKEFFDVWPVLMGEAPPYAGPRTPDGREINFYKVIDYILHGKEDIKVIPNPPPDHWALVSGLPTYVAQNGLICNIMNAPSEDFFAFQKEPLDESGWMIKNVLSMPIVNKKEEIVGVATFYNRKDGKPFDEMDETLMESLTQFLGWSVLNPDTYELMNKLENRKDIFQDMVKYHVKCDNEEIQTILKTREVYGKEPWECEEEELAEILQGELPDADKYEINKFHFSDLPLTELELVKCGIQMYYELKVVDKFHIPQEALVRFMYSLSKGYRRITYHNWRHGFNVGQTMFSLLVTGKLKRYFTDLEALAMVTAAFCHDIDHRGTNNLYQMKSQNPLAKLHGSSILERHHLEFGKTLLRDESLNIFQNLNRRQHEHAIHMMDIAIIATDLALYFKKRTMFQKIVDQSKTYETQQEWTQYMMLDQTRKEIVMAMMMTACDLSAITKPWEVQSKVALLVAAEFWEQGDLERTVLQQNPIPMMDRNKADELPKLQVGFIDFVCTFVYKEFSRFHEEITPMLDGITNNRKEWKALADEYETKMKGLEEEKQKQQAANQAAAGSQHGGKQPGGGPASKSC
# T2 sequence (P23439 2-850 limits assumed): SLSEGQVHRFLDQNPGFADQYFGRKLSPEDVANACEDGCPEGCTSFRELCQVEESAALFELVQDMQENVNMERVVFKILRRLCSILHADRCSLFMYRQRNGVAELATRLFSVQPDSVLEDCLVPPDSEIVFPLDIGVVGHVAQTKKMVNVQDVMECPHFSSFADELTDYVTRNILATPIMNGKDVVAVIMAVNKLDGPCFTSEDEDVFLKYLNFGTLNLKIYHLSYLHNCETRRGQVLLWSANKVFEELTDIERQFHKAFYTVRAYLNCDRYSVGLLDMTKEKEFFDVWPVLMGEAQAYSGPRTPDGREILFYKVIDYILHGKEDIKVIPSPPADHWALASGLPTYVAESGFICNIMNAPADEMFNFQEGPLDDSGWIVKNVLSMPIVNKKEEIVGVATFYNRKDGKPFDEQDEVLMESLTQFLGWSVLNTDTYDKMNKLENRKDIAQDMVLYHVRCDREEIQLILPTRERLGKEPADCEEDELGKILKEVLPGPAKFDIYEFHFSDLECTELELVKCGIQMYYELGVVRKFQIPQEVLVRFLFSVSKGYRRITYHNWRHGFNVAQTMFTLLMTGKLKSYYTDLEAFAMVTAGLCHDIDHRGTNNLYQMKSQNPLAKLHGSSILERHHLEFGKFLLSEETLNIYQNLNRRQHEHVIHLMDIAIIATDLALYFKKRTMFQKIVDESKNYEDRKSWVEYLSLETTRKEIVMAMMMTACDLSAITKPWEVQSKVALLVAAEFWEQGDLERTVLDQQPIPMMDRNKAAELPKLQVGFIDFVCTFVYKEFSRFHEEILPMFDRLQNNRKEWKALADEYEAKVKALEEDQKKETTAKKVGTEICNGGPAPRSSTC
Structure (SMILES),IC50 (PDE4 (from U937 cells)),PDE Specificity Ratio PDE4/PDE5 [1],inhibition at 10 µM ([1]; read-out: PDE5 (% inhib at 10 µM)),IC50 (LTB4),PDE1 (% inhib at 10 µM) (bovine PDE1),PDE Specificity Ratio PDE4/PDE1 (bovine PDE1),EC50 (cAMP [2]),PDE Specificity Ratio PDE4/PDE3 [3],inhibition at 10 µM ([3]; read-out: PDE3 (% inhib at 10 µM)),solubility [4],IC50 ([5]; 10 nM cAMP),PDE Specificity Ratio PDE7 IC50/PDE4 IC50 ([5]; from above data),EC50 (cAMP [6]),PDE Specificity Ratio PDE4/PDE2 (human PDE2),inhibition at 10 µM (human PDE2; read-out: PDE2(% inhib at 10 µM)),PDE5 (% inhib at 10 µM) ([1]; 10 µM),PDE3 (% inhib at 10 µM) ([3]; 10 µM),PDE6 (% inhib at 10 µM) ([7]; 10 µM),PDE Specificity Ratio PDE4/PDE6 ([7]; from above data),PDE2(% inhib at 10 µM) (human PDE2; 10 µM)
"CCOc1cc(C(CS(C)(=O)=O)N2C(=O)c3cccc(NC(C)=O)c3C2=O)ccc1OC (racemic) [Racemic Compound, 2-[1-(3-Ethoxy-4-methoxyphenyl)-2-methylsulfonylethyl]-4-acetylaminoisoindoline-1,3-dione]",81.8 nM,>12000 fold,3%,20.1 nM,9%,>2700 fold,3090 nM,>670 fold,21%,3.4 µg/mL,22100 nM,270 fold,12600 nM,>800 fold,19%,–,–,–,–,–
CCOc1cc([C@H](CS(C)(=O)=O)N2C(=O)c3cccc(NC(C)=O)c3C2=O)ccc1OC [Compound B],611 nM,>39000 fold,–,–,27%,>50 fold,–,>45 fold,–,–,–,–,–,>260 fold,–,-9%,31%,10%,>250 fold,10%
